Our source for the EC50 values is US9315475B2 (MERCK SHARP & DOHME CORP., priority 2011, dated 2016).

The test has as its system HIV-1 (H9IIIB strain). Kind of test: Antiviral acute infection assay in cell culture (Spread). Type of test: cell-based. The following applies: Human immunodeficiency virus 1, T-lymphoid, HIV-1 H9IIIB infection of MT-4 human T-lymphoid cells in 10% FBS; mean of at least two independent experiments. The text has this:
Antiviral Assays in Cell Culture (“Spread”)
Acute Infection Assay (“Spread”) data were generated using HIV-1 (H9IIIB strain) infection of MT-4 human T-lymphoid cells in 10% FBS, and according to the methods disclosed by J. P. Vacca et al, “L-735,524: An orally bioavailable human immunodeficiency virus type 1 protease inhibitor,” Proc. Natl. Acad. Sci. USA, Vol. 91, pp. 4096-4100 (April 1994).

Compound `COC(=O)N[C@H](C(=O)Nc1cccc(F)c1CC[C@@H]1CN[C@H](COC(=O)NCC(F)(F)F)CO1)[C@@H](c1ccc(Cl)cc1)c1cncc(F)c1` [Example 137, (βS)-4-Chloro-β-(5-fluoropyridin-3-yl)-N-(3-fluoro-2-{2-[(2R,5S)-5-({[(2,2,2-trifluoroethyl)carbamoyl]oxy}methyl)morpholin-2-yl]ethyl}phenyl)-Nα-(methoxycarbonyl)-L-phenylalaninamide] registered a half-maximal effective concentration (EC50) of 9.8 nM.
The compound `N[C@H](C(=O)Nc1cccc(F)c1CC[C@@H]1CN[C@H](CNC(=O)OCC(F)(F)F)CO1)C(c1ccc(F)cc1)c1ccc(F)cc1` [Example 88, 4-fluoro-β-(4-fluorophenyl)-N-(3-fluoro-2-{2-[(2R,5R)-5-({[(2,2,2-trifluoro-ethoxy)carbonyl]amino}methyl)morpholin-2-yl]ethyl}phenyl)-L-phenylalaninamide] registered a half-maximal effective concentration (EC50) of 450 nM.
Regarding `Cc1cc(C)n(CCNC(=O)OC[C@@H]2CO[C@H](CCc3c(F)cncc3NC(=O)CC(c3ccc(F)cc3)c3ccc(F)cc3)CN2)n1` [Example 172, {(3S,6R)-6-[2-(3-{[3,3-bis(4-fluoro-phenyl)propanoyl]amino}-5-fluoropyridin-4-yl)ethyl]morpholin-3-yl}methyl [2-(3,5-dimethyl-1H-pyrazol-1-yl)ethyl]carbamate], the midpoint of the response, the EC50, lay at 60 nM. This EC50 is about 7.5-fold lower than that of the compound before.
With `O=C(C[C@@H](c1ccc(F)cc1)c1cccc(F)c1F)Nc1cccc(F)c1CC[C@@H]1CN[C@H](COC(=O)NCC(F)(F)F)CO1` [Example 153, {(3S,6R)-6-[2-(2-{[(3S)-3-(2,3-difluorophenyl)-3-(4-fluorophenyl)propanoyl]amino}-6-fluoro-phenyl)ethyl]morpholin-3-yl}methyl (2,2,2-trifluoroethyl)carbamate] the figure was 130 nM; with `N#Cc1ncccc1[C@@H](CC(=O)Nc1cccc(F)c1CC[C@@H]1CN[C@H](COC(=O)NCC(F)(F)F)CO1)c1ccc(F)cc1` [Example 178, {(3S,6R)-6-[2-(2-{[(3S)-3-(2-cyanopyridin-3-yl)-3-(4-fluorophenyl)propanoyl]amino}-6-fluoro-phenyl)ethyl]morpholin-3-yl}methyl (2,2,2-trifluoroethyl)carbamate], 85 nM; with `N#Cc1cccc([C@@H](CC(=O)Nc2cccc(F)c2CC[C@@H]2CN[C@H](COC(=O)NCC(F)(F)F)CO2)c2ccc(F)cc2)c1` [Example 160, {(3S,6R)-6-[2-(2-{[(3S)-3-(3-cyanophenyl)-3-(4-fluorophenyl)propanoyl]amino}-6-fluoro-phenyl)ethyl]morpholin-3-yl}methyl (2,2,2-trifluoroethyl)carbamate], 31 nM.
The compound `N[C@H](C(=O)Nc1cccc(F)c1CC[C@@H]1CN[C@H](COC(=O)NC2CCOCC2)CO1)C(c1ccc(F)cc1)c1ccc(F)cc1` [Example 223, 4-fluoro-β-(4-fluorophenyl)-N-(3-fluoro-2-{2-[(2R,5S)-5-{[(tetrahydro-2H-pyran-4-ylcarbamoyl)oxy]methyl}morpholin-2-yl]ethyl}phenyl)-L-phenylalaninamide] yielded an EC50 of 1400 nM.
The figure for `O=C(C[C@@H](c1ccc(F)cc1)c1cncc(C(F)(F)F)c1)Nc1cccc(F)c1CC[C@@H]1CN[C@H](COC(=O)NCC(F)(F)F)CO1` [Example 139, [(3S,6R)-6-{2-[2-Fluoro-6-({(3S)-3-(4-fluorophenyl)-3-[5-(trifluoromethyl)pyridin-3-yl]propanoyl}amino)phenyl]ethyl}morpholin-3-yl]methyl (2,2,2-trifluoroethyl)carbamate] is 108 nM; for `O=C(CC(c1ccc(F)cc1)c1ccc(F)cc1)Nc1cncc(F)c1CC[C@@H]1CN[C@H](COC(=O)NC(CO)C2CC2)CO1` (stereo partly drawn) [Example 175, {(3S,6R)-6-[2-(3-{[3,3-bis(4-fluoro-phenyl)propanoyl]amino}-5-fluoropyridin-4-yl)ethyl]morpholin-3-yl}methyl (1-cyclopropyl-2-hydroxyethyl)carbamate] it is 39 nM; for `CC(C)C(NC(=O)OC[C@@H]1CO[C@H](CCc2c(F)cncc2NC(=O)CC(c2ccc(F)cc2)c2ccc(F)cc2)CN1)C(C)C` [Example 186, {(3S,6R)-6-[2-(3-{[3,3-bis(4-fluoro-phenyl)propanoyl]amino}-5-fluoropyridin-4-yl)ethyl]morpholin-3-yl}methyl [2-methyl-1-(1-methylethyl)propyl] carbamate] it is 66 nM.
The figure for `CC(NC(=O)OC[C@@H]1CO[C@H](CCc2c(F)cncc2NC(=O)CC(c2ccc(F)cc2)c2ccc(F)cc2)CN1)C1CCCO1` (stereo partly drawn) [Example 171, {(3S,6R)-6-[2-(3-{[3,3-bis(4-fluoro-phenyl)propanoyl]amino}-5-fluoropyridin-4-yl)ethyl]morpholin-3-yl}methyl [1-(tetrahydrofuran-2-yl)ethyl]carbamate] is 68 nM; for `CNC(=O)OC[C@@H]1CO[C@H](CCc2c(F)cncc2NC(=O)CC(c2ccc(F)cc2)c2ccc(F)cc2)CN1` [Example 177, {(3S,6R)-6-[2-(3-{[3,3-bis(4-fluoro-phenyl)propanoyl]amino}-5-fluoropyridin-4-yl)ethyl]morpholin-3-yl}methyl methylcarbamate] it is 41 nM; for `N[C@H](C(=O)Nc1cccc(F)c1CC[C@@H]1CN[C@H](COC(=O)N[C@H]2CCCOC2)CO1)C(c1ccc(F)cc1)c1ccc(F)cc1` [Example 122, 4-Fluoro-β-(4-fluorophenyl)-N-(3-fluoro-2-{2-[(2R,5S)-5-({[(3S)-tetrahydro-2H-pyran-3-ylcarbamoyl]oxy}methyl)morpholin-2-yl]ethyl}phenyl)-L-phenylalaninamide] it is 44 nM.
`O=C(CC(c1ccc(F)cc1)c1ccc(F)cc1)Nc1cncc(F)c1CC[C@@H]1CN[C@H](COC(=O)NCCNc2ccccc2)CO1` [Example 168, {(3S,6R)-6-[2-(3-{[3,3-bis(4-fluorophenyl)propanoyl]amino}-5-fluoropyridin-4-yl)ethyl]morpholin-3-yl}methyl [2-(phenyl-amino)ethyl]carbamate] showed a 50% effective concentration (EC50) of 13 nM.
With `O=C(C[C@@H](c1ccc(F)cc1)c1ccsc1)Nc1cccc(F)c1CC[C@@H]1CN[C@H](COC(=O)NCC(F)(F)F)CO1` [Example 183, {(3S,6R)-6-[2-(2-fluoro-6-{[(3S)-3-(4-fluorophenyl)-3-thiophen-3-ylpropanoyl]amino}phenyl)ethyl]morpholin-3-yl}methyl (2,2,2-trifluoroethyl)carbamate] the figure was 690 nM; with `N[C@H](C(=O)Nc1cccc(F)c1CC[C@@H]1CN[C@H](COC(=O)NCC(F)(F)F)CO1)[C@H](c1ccc(Cl)cc1)c1ccc2c(c1)OCO2` [Example 100, {(3S,6R)-6-[2-(2-{[(3R)-3-(1,3-Benzodioxol-5-yl)-3-(4-chlorophenyl)-L-alanyl]amino}-6-fluorophenyl)ethyl]morpholin-3-yl}methyl (2,2,2-trifluoroethyl)carbamate], 39 nM.
The figure for `N[C@H](C(=O)Nc1cncc(F)c1CC[C@@H]1CN[C@H](COC(=O)NCC(F)(F)F)CO1)[C@@H](c1ccc(F)cc1)C1CCOCC1` [Example 127, (βR)-4-Fluoro-N-(5-fluoro-4-{2-[(2R,5S)-5-({[(2,2,2-trifluoroethyl)carbamoyl]oxy}methyl)morpholin-2-yl]ethyl}pyridin-3-yl)-β-(tetrahydro-2H-pyran-4-yl)-L-phenylalaninamide] is 71 nM; for `O=C(C[C@@H](c1ccc(F)cc1)c1cncc(C(F)(F)F)c1)Nc1cncc(F)c1CC[C@@H]1CN[C@H](COC(=O)NCC(F)(F)F)CO1` [Example 184, [(3S,6R)-6-{2-[3-fluoro-5-({(3S)-3-(4-fluorophenyl)-3-[5-(trifluoromethyl)pyridin-3-yl]propanoyl}amino)pyridin-4-yl]ethyl}morpholin-3-yl]methyl (2,2,2-trifluoroethyl)carbamate] it is 15 nM; for `COC(=O)N[C@H](C(=O)Nc1cccc(F)c1CC[C@@H]1CN[C@H](COC(=O)NCC(F)(F)F)CO1)[C@@H](c1ccc(F)cc1)c1ccccc1OC(F)(F)F` [Example 111, (βS)-4-Fluoro-N-(3-fluoro-2-{2-[(2R,5S)-5-({[(2,2,2-trifluoroethyl)carbamoyl]oxy}methyl)morpholin-2-yl]ethyl}phenyl)-Nα-(methoxycarbonyl)-β-[2-(trifluoromethoxy)phenyl]-L-phenylalaninamide] it is 25 nM.
With `COCCOc1ccc([C@@H](CC(=O)Nc2cncc(F)c2CC[C@@H]2CN[C@H](COC(=O)NCC(F)(F)F)CO2)c2ccc(F)cc2)cc1` [Example 181, [(3S,6R)-6-{2-[3-fluoro-5-({(3R)-3-(4-fluorophenyl)-3-[4-(2-methoxy-ethoxy)phenyl]propanoyl}amino)pyridin-4-yl]ethyl}morpholin-3-yl]methyl (2,2,2-trifluoroethyl)carbamate] the figure was 50 nM.
Compound `COC(=O)N[C@H](C(=O)Nc1cncc(F)c1CC[C@@H]1CN[C@H](COC(=O)NCC(F)(F)F)CO1)[C@@H](c1ccc(Cl)cc1)c1cccc(OC(F)(F)F)c1` [Example 106, (βS)-β-(4-Chlorophenyl)-N-(5-fluoro-4-{2-[(2R,5S)-5-({[(2,2,2-trifluoroethyl)carbamoyl]oxy}methyl)morpholin-2-yl]ethyl}pyridin-3-yl)-Nα-(methoxycarbonyl)-3-(trifluoromethoxy)-L-phenylalaninamide] showed a concentration giving a half-maximal response (EC50) of 6.5 nM.
`O=C(CC(c1ccc(F)cc1)c1ccc(F)cc1)Nc1cncc(F)c1CC[C@@H]1CN[C@H](COC(=O)NCCOc2ccccc2)CO1` [Example 170, {(3S,6R)-6-[2-(3-{[3,3-bis(4-fluoro-phenyl)propanoyl]amino}-5-fluoropyridin-4-yl)ethyl]morpholin-3-yl}methyl (2-phenoxyethyl)carbamate] had an EC50 of 61 nM.

A word on the EC50: it is the concentration that produces a half-maximal response. The low end stands for an effect from little substance, the high end for a need for much substance.
